Experimental data published in patent US9301963B2, “Treatment tool and method of gradual withdrawal from bezodiazepine dependency” (priority 2011, dated 2016).

What was measured:
[1] = Solvent / liquid delivery medium in which the benzo is soluble
[2] = system: benzodiazepine-dependent patient; test: Gradual liquid micro-taper withdrawal from benzodiazepine dependency in patients; conditions: for daily dosage at which withdrawal symptoms once again emerge during the taper: patients tapered at the found daily reduction rate, typical value
CYP 450 enzymes = conditions: cited from earlier work
[3] = system: benzodiazepine-dependent patient; test: Step taper method (comparison, FIG. 3); conditions: step taper abruptly halted at 0.5 mg

Cc1nnc2n1-c1ccc(Cl)cc1C(c1ccccc1)=NC2 [Alprazolam]
correct solvent [1]: ethanol

CNC1=Nc2ccc(Cl)cc2C(c2ccccc2)=[N+]([O-])C1 [Chlordiazepoxide]
daily dosage at which withdrawal symptoms once again emerge during the taper [2]: ~12.5 mg

O=C1CN=C(c2ccccc2Cl)c2cc([N+](=O)[O-])ccc2N1 [Clonazepam]
half-life (CYP 450 enzymes): relatively long half-life | metabolites (CYP 450 enzymes): no active metabolites | daily dosage at which withdrawal symptoms once again emerge during the taper [2]: ~0.25 mg | suitability of fat/water emulsion as liquid in which the benzo is soluble ([1]; 4% fat homogenized milk): suitable

CN1C(=O)CN=C(c2ccccc2)c2cc(Cl)ccc21 [Diazepam]
daily dosage cut that is often the limit ([2]; daily reduction, increased gradually from 0.05 mg): 0.1 mg | post withdrawal syndrome after taper ([2]; method of the patent, line 310, taper to zero milligrams): eliminates the post withdrawal syndrome | symptom escalation during taper (FIG. 3) ([2]; patient on 14.0 mg starting dose, method of the patent, line 310): no symptom escalation from dosage reduction | daily dosage at which withdrawal symptoms once again emerge during the taper [2]: ~5.0 mg | amount of ethanol to create a useable solution ([1]; ethanol): about 0.19 mL ethanol per 1.0 mg | post withdrawal syndrome after step taper [3]: causes the feared post withdrawal syndrome

O=C1Nc2ccc(Cl)cc2C(c2ccccc2Cl)=NC1O (centres unmarked) [Lorazepam]
metabolism by CYP 450 enzyme pathways (CYP 450 enzymes): not metabolized by the CYP 450 enzyme pathways

O=C1Nc2ccc(Cl)cc2C(c2ccccc2)=NC1O (centres unmarked) [Oxazepam]
metabolism by CYP 450 enzyme pathways (CYP 450 enzymes): not metabolized by the CYP 450 enzyme pathways
